Data as given in patent US20250136586A1, “Substituted 7-(Pyrimidin-4-yl)Quinolin-4(1H)-One Compounds as Cyclin Dependent Kinase Inhibitors” (BeiGene, Ltd., priority 2022, published 2025).

Tests used:
[1] = target: CDK4/Cyclin D1 (Homo sapiens (Human), UniProt P11802); test: TR-FRET kinase inhibition assay, CDK4/Cyclin D1; format: biochemical; conditions: 1 mM ATP, 0.15 μM Rb (Ser780)-biotin substrate, read-out: CDK4D1 IC50
Protocol: Compounds disclosed herein were tested for inhibition of CDK4/Cyclin D1 or CDK6/Cyclin D3 kinase in an assay based on the time-resolved fluorescence-resonance energy transfer (TR-FRET) methodology. […] The kinase was incubated with compound for 60 minutes at room temperature and the reaction was initiated by the addition of ATP and Rb (Ser780)-biotin substrate. After reaction at room temperature for 120 minutes, an equal volume of stop/detection solution was added according to the manufacture's instruction (Cisbio Bioassays). The stop/detection solution contained Streptavidin-XL665 and Anti-pRb (Ser780) mAb-Eu Cryptate in Detection buffer (Cisbio Bioassays). […] The inhibition percentage of CDK4/Cyclin D1 or CDK6/Cyclin D3 kinase activity in presence of increasing concentrations of compounds was calculated based on the ratio of fluorescence at 665 nm to that at 620 nm. The IC50 for each compound was derived from fitting the data to the four-parameter logistic equation by Dotmatics.

[2] = target: CDK6/Cyclin D3 (Homo sapiens (Human), UniProt Q00534); test: TR-FRET kinase inhibition assay, CDK6/Cyclin D3; format: biochemical; conditions: 1 mM ATP, 0.15 μM Rb (Ser780)-biotin substrate, read-out: CDK6D3 IC50
Protocol: Compounds disclosed herein were tested for inhibition of CDK4/Cyclin D1 or CDK6/Cyclin D3 kinase in an assay based on the time-resolved fluorescence-resonance energy transfer (TR-FRET) methodology. The assay was carried out in 384-well low volume black plates in a reaction mixture containing CDK4/Cyclin D1 or CDK6/Cyclin D3, 1 mM ATP, 0.15 μM Rb (Ser780)-biotin substrate and 0-10 μM compound in buffer containing 50 mM HEPES pH7.0, 0.02% NaN3, 0.01% BSA, 0.1 mM Orthovanadate, 50 mM MgCl2, 1 mM DTT and 0.005% Tween-20. The kinase was incubated with compound for 60 minutes at room temperature and the reaction was initiated by the addition of ATP and Rb (Ser780)-biotin substrate. After reaction at room temperature for 120 minutes, an equal volume of stop/detection solution was added according to the manufacture's instruction (Cisbio Bioassays). The stop/detection solution contained Streptavidin-XL665 and Anti-pRb (Ser780) mAb-Eu Cryptate in Detection buffer (Cisbio Bioassays). Plates were incubated at room temperature for 60 minutes, and the TR-FRET signals (ex337 nm, em665 nm/620 nm) were recorded on a PHERAstar FSX plate reader (BMG Labtech). The inhibition percentage of CDK4/Cyclin D1 or CDK6/Cyclin D3 kinase activity in presence of increasing concentrations of compounds was calculated based on the ratio of fluorescence at 665 nm to that at 620 nm. The IC50 for each compound was derived from fitting the data to the four-parameter logistic equation by Dotmatics.

CDK4/Cyclin D1, sequence (P11802 whole entry): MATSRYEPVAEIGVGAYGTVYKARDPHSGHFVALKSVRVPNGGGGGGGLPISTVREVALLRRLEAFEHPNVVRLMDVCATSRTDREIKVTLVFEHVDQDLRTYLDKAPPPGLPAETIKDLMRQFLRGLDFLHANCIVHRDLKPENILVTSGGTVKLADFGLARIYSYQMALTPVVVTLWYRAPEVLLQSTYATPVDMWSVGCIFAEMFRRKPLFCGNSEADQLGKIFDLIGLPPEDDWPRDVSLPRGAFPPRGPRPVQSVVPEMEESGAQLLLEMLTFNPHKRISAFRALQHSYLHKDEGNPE
CDK4/Cyclin D1, sequence (P24385 whole entry partner): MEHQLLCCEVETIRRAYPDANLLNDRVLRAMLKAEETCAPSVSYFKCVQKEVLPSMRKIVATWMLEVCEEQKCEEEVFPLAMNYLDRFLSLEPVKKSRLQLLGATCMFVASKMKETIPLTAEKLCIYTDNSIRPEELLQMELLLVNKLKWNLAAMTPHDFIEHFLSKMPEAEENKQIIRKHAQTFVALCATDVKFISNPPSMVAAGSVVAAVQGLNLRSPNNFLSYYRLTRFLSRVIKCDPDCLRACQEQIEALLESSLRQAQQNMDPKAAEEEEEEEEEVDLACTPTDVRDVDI
CDK6/Cyclin D3, sequence (Q00534 whole entry): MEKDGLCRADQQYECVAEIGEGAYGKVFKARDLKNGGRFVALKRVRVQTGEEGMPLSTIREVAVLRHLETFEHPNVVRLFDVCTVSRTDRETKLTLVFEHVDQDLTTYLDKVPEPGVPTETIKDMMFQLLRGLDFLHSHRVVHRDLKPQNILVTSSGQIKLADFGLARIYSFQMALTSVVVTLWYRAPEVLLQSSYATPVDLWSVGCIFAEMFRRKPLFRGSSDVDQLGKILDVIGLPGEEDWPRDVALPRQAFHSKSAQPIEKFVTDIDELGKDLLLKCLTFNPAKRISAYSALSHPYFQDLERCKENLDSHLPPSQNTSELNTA
CDK6/Cyclin D3, sequence (P30281 whole entry partner): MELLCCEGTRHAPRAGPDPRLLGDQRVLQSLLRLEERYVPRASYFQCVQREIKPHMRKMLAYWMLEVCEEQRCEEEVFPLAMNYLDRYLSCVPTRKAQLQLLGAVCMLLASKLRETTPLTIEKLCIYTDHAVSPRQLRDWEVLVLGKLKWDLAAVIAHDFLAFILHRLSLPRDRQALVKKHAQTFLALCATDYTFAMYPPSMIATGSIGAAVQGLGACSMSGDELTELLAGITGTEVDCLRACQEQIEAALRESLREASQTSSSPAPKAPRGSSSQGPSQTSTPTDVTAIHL

SMILES	IC50 [1] [nM]	IC50 [2] [nM]
CC(C)n1c(CN2C[C@@H](F)[C@@H](O)C2)cc(=O)c2ccc(-c3nc(N[C@@H]4CCOC[C@H]4O)ncc3F)cc21 [Example 45, 7-(5-fluoro-2-(((3S,4R)-3-hydroxytetrahydro-2H-pyran-4-yl)amino)pyrimidin-4-yl)-2-(((3R,4S)-3-fluoro-4-hydroxypyrrolidin-1-yl)methyl)-1-isopropylquinolin-4(1H)-one]	21	651
CC(C)n1c(CN2C[C@@H](O)[C@H](F)C2)cc(=O)c2ccc(-c3nc(N[C@@H]4CCOC[C@H]4O)ncc3F)cc21 [Example 46, 7-(5-fluoro-2-(((3S,4R)-3-hydroxytetrahydro-2H-pyran-4-yl)amino)pyrimidin-4-yl)-2-(((3R,4R)-3-fluoro-4-hydroxypyrrolidin-1-yl)methyl)-1-isopropylquinolin-4(1H)-one]	12	480
CC(C)NCc1cc(=O)c2ccc(-c3nc(N[C@@H]4CCOC[C@H]4O)ncc3F)cc2n1C(C)C [Example 47, 7-(5-fluoro-2-(((3S,4R)-3-hydroxytetrahydro-2H-pyran-4-yl)amino)pyrimidin-4-yl)-1-isopropyl-2-((isopropylamino)methyl)quinolin-4(1H)-one]	14	658
CC(C)n1c(CNC2CC2)cc(=O)c2ccc(-c3nc(N[C@@H]4CCOC[C@H]4O)ncc3F)cc21 [Example 48, 2-((cyclopropylamino)methyl)-7-(5-fluoro-2-(((3S,4R)-3-hydroxytetrahydro-2H-pyran-4-yl)amino)pyrimidin-4-yl)-1-isopropylquinolin-4(1H)-one]	9.1	209
CC(C)n1c(CN2CC[C@@H](F)C2)cc(=O)c2ccc(-c3nc(N[C@@H]4CCOC[C@H]4O)ncc3F)cc21 [Example 49, 7-(5-fluoro-2-(((3S,4R)-3-hydroxytetrahydro-2H-pyran-4-yl)amino)pyrimidin-4-yl)-2-(((R)-3-fluoropyrrolidin-1-yl)methyl)-1-isopropylquinolin-4(1H)-one]	8.3	299
CC(=O)NCc1cc(=O)c2ccc(-c3nc(N[C@@H]4CCOC[C@H]4O)ncc3F)cc2n1C(C)C [Example 50, N-((7-(5-fluoro-2-(((3S,4R)-3-hydroxytetrahydro-2H-pyran-4-yl)amino)pyrimidin-4-yl)-1-isopropyl-4-oxo-1,4-dihydroquinolin-2-yl)methyl)acetamide]	16	688
CC(C)n1c(CN2CCC[C@@]3(CCN(C)C3=O)C2)cc(=O)c2ccc(-c3nc(N[C@@H]4CCOC[C@H]4O)ncc3F)cc21 [Example 51, (R)-7-((7-(5-fluoro-2-(((3S,4R)-3-hydroxytetrahydro-2H-pyran-4-yl)amino)pyrimidin-4-yl)-1-isopropyl-4-oxo-1,4-dihydroquinolin-2-yl)methyl)-2-methyl-2,7-diazaspiro[4,5]decan-1-one]	54	648
CC(C)n1c(CN2CCC[C@]3(CCN(C)C3=O)C2)cc(=O)c2ccc(-c3nc(N[C@@H]4CCOC[C@H]4O)ncc3F)cc21 [Example 52, (S)-7-((7-(5-fluoro-2-(((3S,4R)-3-hydroxytetrahydro-2H-pyran-4-yl)amino)pyrimidin-4-yl)-1-isopropyl-4-oxo-1,4-dihydroquinolin-2-yl)methyl)-2-methyl-2,7-diazaspiro[4,5]decan-1-one]	6.4	467
CC(C)n1c(CN2CCOC[C@@H]2C)cc(=O)c2ccc(-c3nc(N[C@@H]4CCOC[C@H]4O)ncc3F)cc21 [Example 53, 7-(5-fluoro-2-(((3S,4R)-3-hydroxytetrahydro-2H-pyran-4-yl)amino)pyrimidin-4-yl)-1-isopropyl-2-(((S)-3-methylmorpholino)methyl)quinolin-4(1H)-one]	11	165
CC(C)n1c(CN2CCC(F)(F)CC2)cc(=O)c2ccc(-c3nc(N[C@@H]4CCOC[C@H]4O)ncc3F)cc21 [Example 54, 2-((4,4-difluoropiperidin-1-yl)methyl)-7-(5-fluoro-2-(((3S,4R)-3-hydroxytetrahydro-2H-pyran-4-yl)<amino)pyrimidin-4-yl)-1-isopropylquinolin-4(1H)-one]	13	260
CCc1cc(=O)c2ccc(-c3nc(N[C@@H]4CCOC[C@H]4O)ncc3F)cc2n1C(C)C [Example 55, 2-ethyl-7-(5-fluoro-2-(((3S,4R)-3-hydroxytetrahydro-2H-pyran-4-yl)amino)pyrimidin-4-yl)-1-isopropylquinolin-4(1H)-one]	15	345
CC(C)n1c(CN2CCC[C@H](O)C2)cc(=O)c2ccc(-c3nc(N[C@@H]4CCOC[C@H]4O)ncc3F)cc21 [Example 56, 7-(5-fluoro-2-(((3S,4R)-3-hydroxytetrahydro-2H-pyran-4-yl)amino)pyrimidin-4-yl)-2-(((S)-3-hydroxypiperidin-1-yl)methyl)-1-isopropylquinolin-4(1H)-one]	7	238
CC(C)n1c(CN2CCC[C@@H](O)C2)cc(=O)c2ccc(-c3nc(N[C@@H]4CCOC[C@H]4O)ncc3F)cc21 [Example 57, 7-(5-fluoro-2-(((3S,4R)-3-hydroxytetrahydro-2H-pyran-4-yl)amino)pyrimidin-4-yl)-2-(((R)-3-hydroxypiperidin-1-yl)methyl)-1-isopropylquinolin-4(1H)-one]	16	352
Cc1c(CN2CCOCC2)n(C(C)C)c2cc(-c3nc(N[C@@H]4CCOC[C@H]4O)ncc3F)ccc2c1=O [Example 58, 7-(5-fluoro-2-(((3S,4R)-3-hydroxytetrahydro-2H-pyran-4-yl)amino)pyrimidin-4-yl)-1-isopropyl-3-methyl-2-(morpholinomethyl)quinolin-4(1H)-one]	3.4	78.2
CC(C)n1c(CN[C@@H]2CCCOC2)cc(=O)c2ccc(-c3nc(N[C@@H]4CCOC[C@H]4O)ncc3F)cc21 [Example 59, 7-(5-fluoro-2-(((3S,4R)-3-hydroxytetrahydro-2H-pyran-4-yl)amino)pyrimidin-4-yl)-1-isopropyl-2-((((R)-tetrahydro-2H-pyran-3-yl)amino)methyl)quinolin-4(1H)-one]	27	675
CC(C)n1c(CN[C@H]2CCCOC2)cc(=O)c2ccc(-c3nc(N[C@@H]4CCOC[C@H]4O)ncc3F)cc21 [Example 60, 7-(5-fluoro-2-(((3S,4R)-3-hydroxytetrahydro-2H-pyran-4-yl)amino)pyrimidin-4-yl)-1-isopropyl-2-((((S)-tetrahydro-2H-pyran-3-yl)amino)methyl)quinolin-4(1H)-one]	22	638
CC(C)n1c(CN2CC[C@](C)(O)C2)cc(=O)c2ccc(-c3nc(N[C@@H]4CCOC[C@H]4O)ncc3F)cc21 [Example 61, 7-(5-fluoro-2-(((3S,4R)-3-hydroxytetrahydro-2H-pyran-4-yl)amino)pyrimidin-4-yl)-2-(((S)-3-hydroxy-3-methylpyrrolidin-1-yl)methyl)-1-isopropylquinolin-4(1H)-one]	30	1170
CC(C)n1c(CN2CCO[C@@H](C)C2)cc(=O)c2ccc(-c3nc(N[C@@H]4CCOC[C@H]4O)ncc3F)cc21 [Example 62, 7-(5-fluoro-2-(((3S,4R)-3-hydroxytetrahydro-2H-pyran-4-yl)amino)pyrimidin-4-yl)-1-isopropyl-2-(((S)-2-methylmorpholino)methyl)quinolin-4(1H)-one]	17	255
CC(C)n1c(CN[C@H]2C[C@H](F)C2)cc(=O)c2ccc(-c3nc(N[C@@H]4CCOC[C@H]4O)ncc3F)cc21 [Example 63, 7-(5-fluoro-2-(((3S,4R)-3-hydroxytetrahydro-2H-pyran-4-yl)amino)pyrimidin-4-yl)-2-((((1r,3R)-3-fluorocyclobutyl)amino)methyl)-1-isopropylquinolin-4(1H)-one]	22	484
CC(C)n1c(CN[C@H]2C[C@@H](F)C2)cc(=O)c2ccc(-c3nc(N[C@@H]4CCOC[C@H]4O)ncc3F)cc21 [Example 64, 7-(5-fluoro-2-(((3S,4R)-3-hydroxytetrahydro-2H-pyran-4-yl)amino)pyrimidin-4-yl)-2-((((1s,3S)-3-fluorocyclobutyl)amino)methyl)-1-isopropylquinolin-4(1H)-one]	26	702
